# Assay results: patent US12655116B2, “Substituted isophthalic acid diamides” (Bayer Aktiengesellschaft, priority 2020, dated 2026)
# Assays:
# [1] = system: SETVI; test: Pre-emergence herbicidal action against SETVI; type: in vivo, Setaria viridis
# Summary of the method: (§1)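 Visual rating at 3 weeks vs untreated pots; 0–100% scale, 100% = plants died. Treatment: aqueous WP/EC spray onto covering soil, 600–800 l/ha, 0.2% wetter, seeds in sandy loam.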
# [2] = system: ECHCG; test: Post-emergence herbicidal action against ECHCG; type: in vivo, Echinochloa crus-galli
# Summary of the method: (§2)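 Greenhouse pot plants in sandy loam were sprayed at the one-leaf stage, 2 to 3 weeks after sowing, with WP or EC formulations as aqueous suspension or emulsion (600 to 800 l/ha water, 0.2% wetting agent). About 3 weeks later, damage was scored visually against untreated controls as % action (100% = dead, 0% = like control).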
# [3] = system: POLCO; test: Pre-emergence herbicidal action against POLCO; type: in vivo, Polygonum convolvulus
# Summary of the method: as §1
# [4] = system: VERPE; test: Pre-emergence herbicidal action against VERPE; type: in vivo, Veronica persica; settings: Veronica persica, 504 h, dosage 80 g/ha
# Summary of the method: as §1
# [5] = system: ABUTH; test: Pre-emergence herbicidal action against ABUTH; type: in vivo, Abutilon theophrasti
# Summary of the method: as §1
# [6] = system: AVEFA; test: Post-emergence herbicidal action against AVEFA; type: in vivo, Avena fatua; settings: 20 g/ha, visual assessment about 3 weeks after treatment, 100% = plants have died, 0% = like control plants
# Summary of the method: as §2
# [7] = system: SETVI; test: Post-emergence herbicidal action against SETVI; type: in vivo, Setaria viridis
# Summary of the method: as §2
# [8] = system: ALOMY; test: Post-emergence herbicidal action against ALOMY; type: in vivo, Alopecurus myosuroides; settings: visual assessment about 3 weeks after treatment vs untreated controls
# Summary of the method: as §2
# [9] = system: LOLRI; test: Pre-emergence herbicidal action against LOLRI; type: in vivo, Lolium rigidum; settings: 80 g/ha
# Summary of the method: as §1
# [10] = system: DIGSA; test: Pre-emergence herbicidal action against DIGSA; type: in vivo, Digitaria sanguinalis
# Summary of the method: as §1
# [11] = system: ALOMY; test: Pre-emergence herbicidal action against ALOMY; type: in vivo, Alopecurus myosuroides; settings: pre-emergence
# Summary of the method: as §1
# [12] = system: AVEFA; test: Pre-emergence herbicidal action against AVEFA; type: in vivo, Avena fatua; settings: 80 g/ha, pre-emergence
# Summary of the method: as §1
# [13] = system: MATIN; test: Pre-emergence herbicidal action against MATIN; type: in vivo, Matricaria inodora
# Summary of the method: as §1
# [14] = system: AMARE; test: Pre-emergence herbicidal action against AMARE; type: in vivo, Amaranthus retroflexus
# Summary of the method: as §1
# [15] = system: PHBPU; test: Post-emergence herbicidal action against PHBPU; type: in vivo, Pharbitis purpurea
# Summary of the method: as §2
# [16] = system: PHBPU; test: Pre-emergence herbicidal action against PHBPU; type: in vivo, Pharbitis purpurea
# Summary of the method: as §1
# [17] = system: AMARE; test: Post-emergence herbicidal action against AMARE; type: in vivo, Amaranthus retroflexus; settings: 20 g/ha, visual assessment about 3 weeks after treatment, 100% = plants have died, 0% = like control plants
# Summary of the method: as §2
# [18] = system: VIOTR; test: Pre-emergence herbicidal action against VIOTR; type: in vivo, Viola tricolor
# Summary of the method: as §1
# [19] = system: MATIN; test: Post-emergence herbicidal action against MATIN; type: in vivo, Matricaria inodora
# Summary of the method: as §2
# [20] = system: ECHCG; test: Pre-emergence herbicidal action against ECHCG; type: in vivo, Echinochloa crus-galli
# Summary of the method: as §1
# [21] = system: VIOTR; test: Post-emergence herbicidal action against VIOTR; type: in vivo, Viola tricolor
# Summary of the method: as §2
# [22] = system: ABUTH; test: Post-emergence herbicidal action against ABUTH; type: in vivo, Abutilon theophrasti; settings: visual assessment about 3 weeks after treatment vs untreated controls
# Summary of the method: as §2
# [23] = system: DIGSA; test: Post-emergence herbicidal action against DIGSA; type: in vivo, Digitaria sanguinalis
# Summary of the method: as §2
# [24] = Tripleurospermum inodorum, 504 h, dosage 20 g/ha
# [25] = Ipomoea purpurea, 504 h, dosage 20 g/ha
# [26] = 80 g/ha, scored visually after 3 weeks vs untreated controls (100% = plants have died, 0% = like control plants)
# [27] = dosage 20 g/ha, scored visually after 3 weeks vs untreated controls, 100% = plants have died, 0% = like control plants
# [28] = 20 g/ha, scored visually after 3 weeks vs untreated controls, 100% = plants have died, 0% = like control plants
smiles,measurement,setting,value
CC(C)NC(=O)c1c(C(F)(F)F)ccc(C(=O)Nc2nnnn2C)c1Cl [Example 1-137],pest or weed control at 80 g/ha,"[1]; Setaria viridis, 504 h, dosage 80 g/ha",100%
same,pest or weed control at 5 g/ha,"[2]; Echinochloa crus-galli, 504 h, dosage 5 g/ha",90%
same,pest or weed control at 20 g/ha,"[2]; Echinochloa crus-galli, 504 h, dosage 20 g/ha",90%
same,pest or weed control at 20 g/ha,"[3]; Fallopia convolvulus, 504 h, dosage 20 g/ha",80%
same,pest or weed control at 80 g/ha,"[3]; Fallopia convolvulus, 504 h, dosage 80 g/ha",100%
same,pest or weed control at 80 g/ha,[4],90%
same,pest or weed control at 80 g/ha,"[5]; Abutilon theophrasti, 504 h, 80 g/ha, scored visually after 3 weeks vs untreated controls (100% = plants have died, 0% = like control plants)",100%
same,pest or weed control at 20 g/ha,"[5]; Abutilon theophrasti, 504 h, dosage 20 g/ha, scored visually after 3 weeks vs untreated controls, 100% = plants have died, 0% = like control plants, read-out: Pre-emergence action against ABUTH (herbicidal activity in percent)",100%
same,pest or weed control at 20 g/ha,"[6]; Avena fatua, 504 h",80%
same,pest or weed control at 20 g/ha,"[7]; Setaria viridis, 504 h, dosage 20 g/ha",80%
same,pest or weed control at 20 g/ha,"[8]; Alopecurus myosuroides, 504 h, dosage 20 g/ha",90%
same,pest or weed control at 80 g/ha,"[9]; Lolium rigidum, 504 h",90%
same,pest or weed control at 20 g/ha,"[10]; Digitaria sanguinalis, 504 h, dosage 20 g/ha",100%
same,pest or weed control at 80 g/ha,"[10]; Digitaria sanguinalis, 504 h, dosage 80 g/ha",100%
same,pest or weed control at 80 g/ha,"[11]; Alopecurus myosuroides, 504 h, 80 g/ha, scored visually after 3 weeks vs untreated controls (100% = plants have died, 0% = like control plants)",90%
same,pest or weed control at 20 g/ha,"[11]; Alopecurus myosuroides, 504 h, 20 g/ha, scored visually after 3 weeks, 100% = plants have died, 0% = like control plants",90%
same,pest or weed control at 80 g/ha,"[12]; Avena fatua, 504 h",90%
same,pest or weed control at 20 g/ha,[13]; [24],100%
same,pest or weed control at 80 g/ha,"[13]; Tripleurospermum inodorum, 504 h, dosage 80 g/ha",100%
same,pest or weed control at 20 g/ha,"[14]; Amaranthus retroflexus, 504 h, 20 g/ha, scored visually after 3 weeks vs untreated controls, 100% = plants have died, 0% = like control plants",100%
same,pest or weed control at 80 g/ha,"[14]; Amaranthus retroflexus, 504 h, 80 g/ha, scored visually after 3 weeks vs untreated controls, 100% = plants have died, 0% = like control plants",100%
same,pest or weed control at 5 g/ha,"[15]; Ipomoea purpurea, 504 h, dosage 5 g/ha",80%
same,pest or weed control at 20 g/ha,[15]; [25],80%
same,pest or weed control at 20 g/ha,[16]; [25],80%
same,pest or weed control at 80 g/ha,"[16]; Ipomoea purpurea, 504 h, dosage 80 g/ha",90%
same,pest or weed control at 20 g/ha,"[17]; Amaranthus retroflexus, 504 h",90%
same,pest or weed control at 20 g/ha,"[18]; Viola tricolor, 504 h, dosage 20 g/ha",90%
same,pest or weed control at 80 g/ha,"[18]; Viola tricolor, 504 h, dosage 80 g/ha",100%
same,pest or weed control at 5 g/ha,"[19]; Tripleurospermum inodorum, 504 h, dosage 5 g/ha",80%
same,pest or weed control at 20 g/ha,[19]; [24],80%
same,pest or weed control at 20 g/ha,"[20]; Echinochloa crus-galli, 504 h, 20 g/ha",80%
same,pest or weed control at 80 g/ha,"[20]; Echinochloa crus-galli, 504 h, 80 g/ha",100%
CCn1nnnc1NC(=O)c1ccc(Br)c(C(=O)NCC(F)F)c1Cl [Example 2-182],Pre-emergence action against SETVI in %,[1]; dosage 20 g/ha,90%
same,Pre-emergence action against SETVI in %,[1]; dosage 80 g/ha,100%
same,Post-emergence action against ECHCG in %,[2]; dosage 5 g/ha,90%
same,Post-emergence action against ECHCG in %,[2]; dosage 20 g/ha,90%
same,Pre-emergence action against POLCO in %,[3]; dosage 80 g/ha,90%
same,Pre-emergence action against ABUTH (herbicidal activity),[5]; [26],100%
same,Pre-emergence action against ABUTH (herbicidal activity in percent),[5]; [27],100%
same,Post-emergence action at 20 g/ha against AVEFA in %,[6],80%
same,Post-emergence action against SETVI in %,[7]; dosage 5 g/ha,90%
same,Post-emergence action against SETVI in %,[7]; dosage 20 g/ha,100%
same,Post-emergence action against ALOMY in %,[8]; dosage 5 g/ha,80%
same,Post-emergence action against ALOMY in %,[8]; dosage 20 g/ha,100%
same,Pre-emergence action against LOLRI in %,[9],80%
same,Pre-emergence action against DIGSA in %,[10]; dosage 20 g/ha,100%
same,Pre-emergence action against DIGSA in %,[10]; dosage 80 g/ha,100%
same,Pre-emergence action against ALOMY (herbicidal activity),[11]; [26],80%
same,Pre-emergence action against AVEFA in %,[12],90%
same,Pre-emergence action against MATIN in %,[13]; dosage 20 g/ha,90%
same,Pre-emergence action against MATIN in %,[13]; dosage 80 g/ha,100%
same,Pre-emergence action against AMARE in %,[14]; [28],100%
same,Pre-emergence action against AMARE in %,[14]; [26],100%
same,Post-emergence action against PHBPU in %,[15]; dosage 5 g/ha,80%
same,Post-emergence action against PHBPU in %,[15]; dosage 20 g/ha,90%
same,Pre-emergence action against PHBPU in %,[16]; dosage 80 g/ha,90%
same,Pre-emergence action against VIOTR in %,[18]; dosage 20 g/ha,100%
same,Pre-emergence action against VIOTR in %,[18]; dosage 80 g/ha,100%
same,Post-emergence action against MATIN in %,[19]; dosage 5 g/ha,90%
same,Post-emergence action against MATIN in %,[19]; dosage 20 g/ha,90%
same,Post-emergence action against VIOTR in %,[21]; 20 g/ha,100%
same,Pre-emergence action against ECHCG in %,[20]; 80 g/ha,100%
CCn1nnnc1NC(=O)c1ccc(I)c(C(=O)NC)c1Cl [Example 2-195],Pre-emergence action against SETVI in %,[1]; dosage 20 g/ha,80%
same,Pre-emergence action against SETVI in %,[1]; dosage 80 g/ha,100%
same,Pre-emergence action against POLCO in %,[3]; dosage 80 g/ha,80%
same,Post-emergence action against ABUTH in %,[22]; dosage 5 g/ha,100%
same,Post-emergence action against ABUTH in %,[22]; dosage 20 g/ha,100%
same,Pre-emergence action against ABUTH (herbicidal activity),[5]; [26],100%
same,Pre-emergence action against ABUTH (herbicidal activity in percent),[5]; [27],100%
same,Post-emergence action at 20 g/ha against AVEFA in %,[6],80%
same,Post-emergence action against SETVI in %,[7]; dosage 5 g/ha,90%
same,Post-emergence action against SETVI in %,[7]; dosage 20 g/ha,100%
same,Post-emergence action against ALOMY in %,[8]; dosage 5 g/ha,80%
same,Post-emergence action against ALOMY in %,[8]; dosage 20 g/ha,100%
same,Pre-emergence action against LOLRI in %,[9],90%
same,Pre-emergence action against DIGSA in %,[10]; dosage 20 g/ha,90%
same,Pre-emergence action against DIGSA in %,[10]; dosage 80 g/ha,100%
same,Pre-emergence action against ALOMY (herbicidal activity),[11]; [26],100%
same,Pre-emergence action against AVEFA in %,[12],80%
same,Post-emergence action against DIGSA in %,[23]; 5 g/ha,80%
same,Post-emergence action against DIGSA,[23]; 20 g/ha,90%
same,Pre-emergence action against MATIN in %,[13]; dosage 20 g/ha,100%
same,Pre-emergence action against MATIN in %,[13]; dosage 80 g/ha,100%
same,Pre-emergence action against AMARE in %,[14]; [28],100%
same,Pre-emergence action against AMARE in %,[14]; [26],100%
same,Post-emergence action at 20 g/ha against AMARE in %,[17],100%
same,Pre-emergence action against VIOTR in %,[18]; dosage 20 g/ha,100%
same,Pre-emergence action against VIOTR in %,[18]; dosage 80 g/ha,100%
same,Post-emergence action against MATIN in %,[19]; dosage 5 g/ha,80%
same,Post-emergence action against MATIN in %,[19]; dosage 20 g/ha,90%
same,Post-emergence action against VIOTR in %,[21]; 5 g/ha,100%
same,Post-emergence action against VIOTR in %,[21]; 20 g/ha,100%
same,Pre-emergence action against ECHCG in %,[20]; 80 g/ha,80%
